# According to patent publication US10842807B2, “Methods of treating neurodegenerative disorders comprising DNA methyltransferase inhibitors” (Washington University, priority 2016, dated 2020):
# Columns and labels:
# R6/2 HD mouse brain = test: icv infusion in R6/2 mice, striatal qRT-PCR; assay type: in vivo; conditions: 0.1 mM in saline icv infusion by osmotic pump from 6 weeks of age, one week, vs. R6/2-saline
# [1] = system: Bdnf exon IV, VI, and IX transcripts; test: qRT-PCR of Bdnf exon transcripts in Htt-72Q cortical neurons; assay type: cell-based, mouse; conditions: Htt-72Q-expressing cortical neurons; vs. Htt-72Q plus vehicle
# Protocol: (§1) RNA was harvested 5 days later and subjected to qRT-PCR for total Bdnf (coding exon IX) using β-actin and 18S rRNA as reference genes. […] FIG. 3C depicts the schematic of the mouse Bdnf locus and the relative RNA levels of the Bdnf exons. White boxes, non-coding exons; gray box, coding exon. qRT-PCR was performed as in using exon-specific Bdnf primers. […] (FIG. 3G, FIG. 3H) Cortical neurons were co-transduced with lenti viruses expressing Htt and indicated shRNA and processed as in (FIG. 3C). […] (FIG. 3I) Primary cortical neurons from BACHD mice were treated with decitabine (0.2 μM) or vehicle for 3.5 days. qRT-PCR was performed using β-actin as a reference gene. […] Data are presented as mean+SEM.
# (§2) Mouse primary cortical and striatal neurons from embryonic day (E) 15.5 Swiss Webster mouse fetuses (Taconic) were first plated in the minimal essential medium (MEM) containing 10% FBS, 0.45% glucose, 1 mM sodium pyruvate, 2 mM glutamine, 20 U/ml penicillin and 20 μg/ml streptomycin, for 3 h and then maintained in serum-free Neurobasal medium (Life Technologies) containing NeuroCult™ SM1 neuronal supplement ([…] Technologies), 0.5 mM glutamine and 25 μM glutamate for the first 3 d in a humidified incubator (37° C. in 5% CO2). Half of the medium was replaced with Neurobasal medium with SM1 and 0.5 mM glutamine every 3 days.
# [2] = system: Htt-72Q-expressing primary cortical neurons; test: Neurofilament (NF) immunofluorescence, neurite degeneration in cortical neurons; assay type: cell-based, mouse; conditions: fixed at DIV 14; vs. Htt-72Q (0 μM)
# Protocol: (§3) Mouse primary cortical and striatal neurons from embryonic day (E) 15.5 Swiss Webster mouse fetuses (Taconic) were first plated in the minimal essential medium (MEM) containing 10% FBS, 0.45% glucose, 1 mM sodium pyruvate, 2 mM glutamine, 20 U/ml penicillin and 20 μg/ml streptomycin, for 3 h and then maintained in serum-free Neurobasal medium (Life Technologies) containing NeuroCult™ SM1 neuronal supplement ([…] Technologies), 0.5 mM glutamine and 25 μM glutamate for the first 3 d in a humidified incubator (37° C. in 5% CO2). Half of the medium was replaced with Neurobasal medium with SM1 and 0.5 mM glutamine every 3 days. Primary cortical neurons plated on 96-well flat clear bottom black plates (Corning #3904) at 4×10^4 cells/well were infected with Htt exon1 expression lentivirus (Htt-25Q or Htt-72Q) or control empty vector lentivirus at 5 days in vitro (DIV 5). Primary striatal neurons plated on 96-well plates at 1×10^5 cells/well were infected with Htt exon1 expression lentivirus at DIV 4. Viral copy number was adjusted for transduction of neurons on the basis of titer measured using the Lenti-X qRT-PCR titration kit (Clontech), and equal numbers of viral particles of Htt-25Q and Htt-72Q expressing lentiviruses were used for transduction. […]
# For the measurement of neurofilament (NF) immunofluorescence intensity, cortical and striatal neurons cultured in a 96-well plate were fixed in 4% paraformaldehyde (PFA) in PBS for 20 min nine and seven days after Htt lentiviral infection, respectively, permeabilized with 0.1% Triton X-100 in PBS for 15 min at room temperature, and subjected to indirect immunofluorescence with anti-NF (2H3) primary antibody and Alexa Fluor 568-conjugated goat anti-mouse IgG secondary antibody (Life Technologies). […] Following image background subtraction, the NF immunofluorescence intensity was quantified using an ImageJ-based macro. Image capture and quantification of Htt (EM48) immunofluorescence intensity were performed as described for those of NF. […] About 300 nuclei from three random fields in a well were counted. […]
# [3] = system: downregulated genes in mutant Htt-expressing striatal neurons; test: qRT-PCR of striatal genes in Htt-72Q primary striatal neurons; assay type: cell-based, mouse; conditions: Htt-72Q striatal neurons
# Protocol: as §2
# [4] = literature refs 64, 65; cited from earlier work
# [5] = system: Htt-72Q-expressing primary cortical neurons; test: Epigenetic drug library screen, resazurin (Alamar Blue) assay; assay type: cell-based, mouse; conditions: 0.02, 0.2, 2 μM added at DIV 6, resazurin at DIV 14; hits validated by MTS
# Protocol: As epigenetic gene regulation is a cell-type specific mechanism, we used a physiologically relevant, post-mitotic cortical neuron culture system for this screen. In this system, lentivirus-mediated expression of the exon 1-encoded N-terminal fragment of mutant Htt (Htt-72Q with a 72 glutamine repeat), but not wild-type (WT) Htt (Htt-25Q), induces neurotoxicity^38. […] In the drug screen, the viability of Htt-expressing cortical neurons was determined by the resazurin (Alamar Blue) assay, a quantitative measurement of mitochondrial metabolic activity, which correlates with cell viability.
# Epigenetic drug screen was performed using a primary cortical neuron model of HD with a drug library composed of 84 compounds (Table 1), among which 80 drugs are purchased from Cayman Chemical (Epigenetic Screening Library Item No 11076) and four drugs, SGC0946, EPZ5676, EPZ6438, and GSK126, were obtained from Xcessbio Biosciences Inc. Mouse primary cortical neurons were plated on 96-well flat clear bottom black plates (Corning #3904). WT or mutant Htt exon1 fragment (Htt-25Q or Htt-72Q)-expressing lentiviruses are infected at DIV 5 as described above. The 84 compounds were added to the media at DIV 6 one day after Htt lentiviral infection with three different doses (0.02, 0.2, 2 μM) for each compound at triplicates. DMSO was used as control. Media containing compounds or DMSO were changed every three days to maintain the compounds' activity. At DIV 14, the viability of neurons was determined by resazurin (Alamar blue) assay, a quantitative measurement of mitochondrial metabolic activity. The screen was fully automated and performed in the High-Throughput Screening Center in Washington University School of Medicine. Any possible plate effects were determined using control plates treated with DMSO and used for normalization. Screen hits were validated by MTS assay.
# [6] = system: Bdnf exon IV, exon VI, and IX transcripts in primary cortical neurons from BACHD mice; test: qRT-PCR of Bdnf transcripts in BACHD primary cortical neurons; assay type: cell-based, mouse; conditions: 0.2 μM for 3.5 days, vs. vehicle
# Protocol: as §1, §2
# Htt-72Q mRNA = test: qRT-PCR for Htt-72Q (human) mRNA in cortical neurons; assay type: cell-based, mouse; conditions: RNA at DIV 10, compared to vehicle (DMSO)
# Protocol: (FIG. 8A) DIV 5 mouse primary cortical neurons were infected with Htt-72Q lentivirus and treated with decitabine or vehicle (DMSO). RNA was prepared at DIV 10 and subjected to qRT-PCR analysis for Htt-72Q (human). β-actin and Hprt were used as reference genes. […] (FIG. 8B) DIV 5cortical neurons were infected with Htt lentivirus and treated with decitabine (0.2 μM) or DMSO. Neurons were fixed at DIV 11-12 and subjected to indirect immunofluorescence with a specific mouse monoclonal Htt antibody EM48, which preferentially detects aggregated mutant protein. Nuclei were labeled with Hoechst 33342. Images were captured using an Operetta high-content imaging system (PerkinElmer) with a 20× objective lens. Bar 100 μm. (FIG. 8C) EM48 immunofluorescence intensity in (FIG. 8B) was quantified using an ImageJ-based macro. […] (FIG. 8D) Cortical neurons transduced and processed as in (FIG. 8A) were directly harvested in SDS sample buffer at DIV 10 and subjected to immunoblotting with anti-Htt EM48 monoclonal antibody. Blot was reprobed with anti-β-actin antibody. Representative immunoblot from 3 independent experiments is shown. […]
# RNAs were isolated from cultured neurons 5 days after infection of Htt lentiviruses and mouse brain using the RNeasy Plus Mini Kit (QIAGEN) and RNeasy Plus Universal Mini Kit (QIAGEN), respectively. […] Relative mRNA levels were calculated using the ΔΔCq method.
# [7] = system: Htt-72Q-expressing primary cortical neurons; test: Cell death by nuclear morphology (Hoechst 33342); assay type: cell-based, mouse; conditions: vs. Htt-72Q (0 μM)
# Protocol: as §3, with “transduction. For the experiments to test effects of DNMT inhibitors, neurons were treated with inhibitors six hours after Htt lentiviral infection.” for “transduction.”
# [8] = cited from earlier work
SMILES,striatal Penk RNA (R6/2 HD mouse brain),"striatal levels of Drd2, Ppp1r1b, Rasd2, and Adora2a mRNA (R6/2 HD mouse brain)","expression of Bdnf exon IV, VI, and IX transcripts [1]","Htt-72Q-induced neurite degeneration (NF immunofluorescence intensity), cortical neurons [2]",mRNA levels of Kdm8 (specificity control) [3],"expression of downregulated genes (Drd2, Ppp1r1b, Penk, Pcp4, Rasd2) ([3]; RNA 5 days after infection, vs. Htt-72Q plus vehicle)",in vitro stability as reported previously [4],outcome in epigenetic drug screen (84 compounds) [5],"expression of Bdnf exon IV, exon VI, and IX transcripts [6]",levels of Htt-72Q mRNA (Htt-72Q mRNA),Htt-72Q induced cell death (condensed or fragmented nuclei) [7],"blood-brain barrier crossing ([8]; literature refs 62, 63)","in vivo half-life ([8]; literature refs 62, 64)"
"Nc1nc(=O)n([C@H]2C[C@H](O)[C@@H](CO)O2)cc1F [FdCyd, 5-fluoro-2′-deoxycytidine]",trend towards increasing,restored,"increased the expression of Bdnf exon IV, VI, and IX transcripts",protected neurons from Htt-72Q-induced neurite degeneration,,,,,,,,,
"Nc1ncn([C@H]2C[C@H](O)[C@@H](CO)O2)c(=O)n1 [decitabine, 5-aza-2′-deoxycytidine]",,,"increased the expression of Bdnf exon IV, VI, and IX transcripts",blocked Htt-72Q-induced neurite degeneration,unchanged,restored the expression of downregulated genes,instability,the most effective drug,"increased expression of Bdnf exon IV, exon VI, and IX transcripts",did not decrease the levels of Htt-72Q mRNA,blocked Htt-72Q induced cell death,reported to cross the blood-brain barrier,< 20 min
